Patent US20260347364A1, “PYRAZOLO[4,3-F]QUINAZOLINE DERIVATIVES AS MODULATORS OF G12D MUTANT KRAS USEFUL FOR THE TREATMENT OF CANCER” (JAZZ PHARMACEUTICALS IRELAND LTD., priority 2023, published 2026)

Assays:
[1] = target: T1, KRAS G12D (Homo sapiens, UniProt P01116, G12D); assay: HTRF nucleotide exchange assay, KRAS G12D; assay type: biochemical; conditions: HTRF nucleotide exchange assay (NEA), class symbols
T1 construct: aa1-188 KRAS WT, HRAS WT, NRAS WT, or KRAS containing the G12D

[2] = target: T2, KRAS WT (Homo sapiens, UniProt P01116); assay: HTRF nucleotide exchange assay, KRAS WT; assay type: biochemical; conditions: HTRF nucleotide exchange assay (NEA), class symbols
T2 construct: aa1-188 KRAS WT
T2 sequence (P01116 1-188 isoform P01116-2): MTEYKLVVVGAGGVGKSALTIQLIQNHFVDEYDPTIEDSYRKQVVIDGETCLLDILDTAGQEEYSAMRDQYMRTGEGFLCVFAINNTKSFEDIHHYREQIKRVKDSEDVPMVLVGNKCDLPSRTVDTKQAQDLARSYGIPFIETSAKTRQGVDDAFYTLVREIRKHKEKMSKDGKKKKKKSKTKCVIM

T1 sequence (P01116 1-188 isoform P01116-2 G12D): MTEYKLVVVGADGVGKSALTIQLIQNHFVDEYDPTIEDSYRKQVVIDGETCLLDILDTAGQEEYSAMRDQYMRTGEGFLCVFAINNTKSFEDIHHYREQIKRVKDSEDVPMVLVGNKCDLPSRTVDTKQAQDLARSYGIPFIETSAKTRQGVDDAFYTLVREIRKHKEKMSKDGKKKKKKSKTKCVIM

Row | IC50 [1] [nM] | IC50 [2] [nM] | Structure (SMILES)
1 | ≤ 10 | ≤ 10 | CCNC(=O)c1cc2n(n1)CCCN(c1nc(OC[C@@]34CCCN3C[C@H](F)C4)nc3c(F)c(-c4cc(O)cc5ccc(F)c(CC)c45)c4nn(C)cc4c13)C2 [Example 196, N-ethyl-5-[4-(8-ethyl-7-fluoro-3-hydroxy-1-naphthyl)-5-fluoro-7-[[(2R,8S)-2-fluoro-1,2,3,5,6,7-hexahydropyrrolizin-8-yl]methoxy]-2-methyl-pyrazolo[4,3-f]quinazolin-9-yl]-4,6,7,8-tetrahydropyrazolo[1,5-a][1,4]diazepine-2-carboxamide]
2 | ≤ 10 | ≤ 10 | CCc1c(F)ccc2cc(O)cc(-c3c(F)c4nc(OC[C@@]56CCCN5C[C@H](F)C6)nc(N5CCCn6nc(C(=O)N7CCCC7)cc6C5)c4c4cn(C)nc34)c12 [Example 197, [5-[4-(8-ethyl-7-fluoro-3-hydroxy-1-naphthyl)-5-fluoro-7-[[(2R,8S)-2-fluoro-1,2,3,5,6,7-hexahydropyrrolizin-8-yl]methoxy]-2-methyl-pyrazolo[4,3-f]quinazolin-9-yl]-4,6,7,8-tetrahydropyrazolo[1,5-a][1,4]diazepin-2-yl]-pyrrolidin-1-yl-methanone]
3 | 10 to 100 | 10 to 100 | CCc1c(F)ccc2cc(O)cc(-c3cc4nc(OC[C@@]56CCCN5C[C@H](F)C6)nc(N5CCOC6(COC6)C5)c4c4cn(C)nc34)c12 [Example 199, 4-[9-(2,5-dioxa-8-azaspiro[3.5]nonan-8-yl)-2-methyl-7-[[(2R,8S)-2-fluoro-1,2,3,5,6,7-hexahydropyrrolizin-8-yl]methoxy]pyrazolo[4,3-f]quinazolin-4-yl]-5-ethyl-6-fluoro-naphthalen-2-ol]
4 | 100 to 10000 | 100 to 10000 | CCc1c(F)ccc2cc(O)cc(-c3cc4nc(OC[C@@]56CCCN5C[C@H](F)C6)nc(N5CCCC6(CCC(O)C6)C5)c4c4cn(C)nc34)c12 (stereo partly drawn) [Example 200, 7-[4-(8-ethyl-7-fluoro-3-hydroxy-1-naphthyl)-2-methyl-7-[[(2R,8S)-2-fluoro-1,2,3,5,6,7-hexahydropyrrolizin-8-yl]methoxy]pyrazolo[4,3-f]quinazolin-9-yl]-7-azaspiro[4.5]decan-3-ol]
5 | ≤ 10 | 100 to 10000 | CCc1c(F)ccc2cc(O)cc(-c3cc4nc(OC[C@@]56CCCN5C[C@H](F)C6)nc(N5CCCC6(COC6)C5)c4c4cn(C)nc34)c12 [Example 201, 5-ethyl-6-fluoro-4-[2-methyl-9-(2-oxa-8-azaspiro[3.5]nonan-8-yl)-7-[[(2R,8S)-2-fluoro-1,2,3,5,6,7-hexahydropyrrolizin-8-yl]methoxy]pyrazolo[4,3-f]quinazolin-4-yl]naphthalen-2-ol]
6 | ≤ 10 | ≤ 10 | CCc1c(F)ccc2cc(O)cc(-c3c(F)c4nc(OCC5(CN6CCCC6)CC5)nc(N5CCC[C@@](C)(O)C5)c4c4cn(C)nc34)c12 [Example 202, (3R)-1-[4-(8-ethyl-7-fluoro-3-hydroxy-1-naphthyl)-5-fluoro-2-methyl-7-[[1-(pyrrolidin-1-ylmethyl)cyclopropyl]methoxy]pyrazolo[4,3-f]quinazolin-9-yl]-3-methyl-piperidin-3-ol]
7 | ≤ 10 | ≤ 10 | CCc1c(F)ccc2cc(O)cc(-c3c(F)c4nc(OCC56CCCN5CCC6)nc(N5CCC[C@@](C)(O)C5)c4c4cn(C)nc34)c12 [Example 203, (3R)-1-[4-(8-ethyl-7-fluoro-3-hydroxy-1-naphthyl)-5-fluoro-7-(1,2,3,5,6,7-hexahydropyrrolizin-8-ylmethoxy)-2-methyl-pyrazolo[4,3-f]quinazolin-9-yl]-3-methyl-piperidin-3-ol]
8 | ≤ 10 | ≤ 10 | CCc1c(F)ccc2cc(O)cc(-c3c(C)c4nc(OCC5(CN(C)C)CC5)nc(N5CCC[C@@](C)(O)C5)c4c4cn(C)nc34)c12 [Example 204, (3R)-1-[7-[[1-[(dimethylamino)methyl]cyclopropyl]methoxy]-4-(8-ethyl-7-fluoro-3-hydroxy-1-naphthyl)-2,5-dimethyl-pyrazolo[4,3-f]quinazolin-9-yl]-3-methyl-piperidin-3-ol]
